The source made the active and inactive calls. No cut-off for these calls is given here.
How the values were obtained:
Staphylococcus aureus [1] = assay: Antibacterial activity against methicillin sensitive Staphylococcus aureus NRS107 assessed as reduction in microbial growth by CLSI based broth microdilution method; type: functional
Staphylococcus aureus [2] = assay: Antibacterial activity against methicillin resistant Staphylococcus aureus NRS119 assessed as reduction in microbial growth by CLSI based broth microdilution method; type: functional
Staphylococcus aureus [3] = assay: Antibacterial activity against methicillin resistant Staphylococcus aureus USA300 assessed as reduction in microbial growth by CLSI based broth microdilution method; type: functional
Staphylococcus aureus [4] = assay: Antibacterial activity against vancomycin resistant Staphylococcus aureus 10 assessed as reduction in microbial growth by CLSI based broth microdilution method; type: functional
Clostridioides difficile [5] = assay: Antibacterial activity against Clostridioides difficile ATCC BAA1870 assessed as reduction in microbial growth incubated for 48 hrs by broth microdilution method; type: functional
Escherichia coli = assay: Antibacterial activity against Escherichia coli harboring tolC deletion mutant assessed as reduction in microbial growth incubated for 16 hrs by serial dilution method; type: functional
[6] = target: UDP-N-acetylglucosamine 1-carboxyvinyltransferase (Escherichia coli K-12) (UniProt P0A749); assay: Inhibition of Escherichia coli K12 His-tagged MurA expressed in Escherichia coli BL21 cells at 50 uM using UNAG as substrate pre incubated for 15 mins followed by substrate addition and measured after 15 mins by microplate reader analysis relative to control; conditions: time 30.0 min
[7] = target: UDP-N-acetylglucosamine 1-carboxyvinyltransferase (Escherichia coli K-12, UniProt P0A749); assay: Inhibition of Escherichia coli K12 His-tagged MurA expressed in Escherichia coli BL21 cells using UNAG as substrate pre incubated for 15 mins followed by substrate addition and measured after 15 mins by microplate reader analysis
[8] = Drug uptake in Escherichia coli harboring tolC deletion mutant at 10 uM incubated for 30 mins by LC analysis; type: ADME; conditions: 0.5 h
[9] = Drug uptake in Escherichia coli harboring tolC deletion mutant assessed per 1.6x10^9 cells at 10 uM incubated for 30 mins by LC analysis; type: ADME; conditions: 0.5 h
Staphylococcus aureus [10] = assay: Antibacterial activity against Staphylococcus aureus Newman D2C NCTC 10833 assessed as reduction in microbial growth incubated for 16 hrs by serial dilution method; type: functional
[11] = tested on: UDP-N-acetylglucosamine 1-carboxyvinyltransferase (Escherichia coli K-12), P0A749 [C115D]; assay: Inhibition of Escherichia coli MurA C115D mutant using UNAG as substrate pre incubated for 15 mins followed by substrate addition and measured after 15 mins by microplate reader analysis; conditions: time 30.0 min
[12] = target: UDP-N-acetylglucosamine 1-carboxyvinyltransferase (Escherichia coli K-12, UniProt P0A749, C115D); assay: Inhibition of Escherichia coli MurA C115D mutant at 50 uM using UNAG as substrate pre incubated for 15 mins followed by substrate addition and measured after 15 mins by microplate reader analysis relative to control
Bacteria = assay: Binding affinity to wild type U15-N labelled MurA (unknown origin) expressed in Escherichia coli at 200 uM using UNAG as substrate incubated for 90 to 150 mins by 15N-1H-HSQC NMR analysis; conditions: time 90-150 min
Streptococcus pneumoniae = assay: Antibacterial activity against Streptococcus pneumoniae ATCC 700677 assessed as reduction in microbial growth by CLSI based broth microdilution method; type: functional
Enterococcus faecalis = assay: Antibacterial activity against Enterococcus faecalis ATCC 51299 assessed as reduction in microbial growth by CLSI based broth microdilution method; type: functional
Clostridioides difficile [13] = assay: Antibacterial activity against Clostridioides difficile NR-32895 assessed as reduction in microbial growth incubated for 48 hrs by broth microdilution method; type: functional
Clostridioides difficile [14] = assay: Antibacterial activity against Clostridioides difficile NR-32889 assessed as reduction in microbial growth incubated for 48 hrs by broth microdilution method; type: functional
Clostridioides difficile [15] = assay: Antibacterial activity against Clostridioides difficile NR-32903 assessed as reduction in microbial growth incubated for 48 hrs by broth microdilution method; type: functional
Clostridioides difficile [16] = assay: Antibacterial activity against Clostridioides difficile NR-32904 assessed as reduction in microbial growth incubated for 48 hrs by broth microdilution method; type: functional
Clostridioides difficile [17] = assay: Antibacterial activity against Clostridioides difficile NR-13427 assessed as reduction in microbial growth incubated for 48 hrs by broth microdilution method; type: functional
Clostridioides difficile [18] = assay: Antibacterial activity against Clostridioides difficile NR-13436 assessed as reduction in microbial growth incubated for 48 hrs by broth microdilution method; type: functional
Clostridioides difficile [19] = assay: Antibacterial activity against Clostridioides difficile NR-49277 assessed as reduction in microbial growth incubated for 48 hrs by broth microdilution method; type: functional
Clostridioides difficile [20] = assay: Antibacterial activity against Clostridioides difficile NR-49278 assessed as reduction in microbial growth incubated for 48 hrs by broth microdilution method; type: functional
Clostridioides difficile [21] = assay: Antibacterial activity against Clostridioides difficile NR-49279 assessed as reduction in microbial growth incubated for 48 hrs by broth microdilution method; type: functional
Clostridioides difficile [22] = assay: Antibacterial activity against Clostridioides difficile NR-49282 assessed as reduction in microbial growth incubated for 48 hrs by broth microdilution method; type: functional
Clostridioides difficile [23] = assay: Antibacterial activity against Clostridioides difficile NR-49283 assessed as reduction in microbial growth incubated for 48 hrs by broth microdilution method; type: functional
Clostridioides difficile [24] = assay: Antibacterial activity against Clostridioides difficile NR-49284 assessed as reduction in microbial growth incubated for 48 hrs by broth microdilution method; type: functional
Clostridioides difficile [25] = assay: Antibacterial activity against Clostridioides difficile NR-49285 assessed as reduction in microbial growth incubated for 48 hrs by broth microdilution method; type: functional
Clostridioides difficile [26] = assay: Antibacterial activity against Clostridioides difficile NR-49286 assessed as reduction in microbial growth incubated for 48 hrs by broth microdilution method; type: functional
Clostridioides difficile [27] = assay: Antibacterial activity against Clostridioides difficile NR-49287 assessed as reduction in microbial growth incubated for 48 hrs by broth microdilution method; type: functional
Clostridioides difficile [28] = assay: Antibacterial activity against Clostridioides difficile NR-49288 assessed as reduction in microbial growth incubated for 48 hrs by broth microdilution method; type: functional
Clostridioides difficile [29] = assay: Antibacterial activity against Clostridioides difficile NR-49291 assessed as reduction in microbial growth incubated for 48 hrs by broth microdilution method; type: functional
Clostridioides difficile [30] = assay: Antibacterial activity against Clostridioides difficile NR-49294 assessed as reduction in microbial growth incubated for 48 hrs by broth microdilution method; type: functional
Clostridioides difficile [31] = assay: Antibacterial activity against Clostridioides difficile ATCC 43255 assessed as reduction in microbial growth incubated for 48 hrs by broth microdilution method; type: functional
Clostridioides difficile [32] = assay: Antibacterial activity against Clostridioides difficile HM-88 assessed as reduction in microbial growth incubated for 48 hrs by broth microdilution method; type: functional
Clostridioides difficile [33] = assay: Bactericidal activity against Clostridioides difficile NR-32895 assessed as reduction in microbial growth by broth microdilution method; type: functional
Clostridioides difficile [34] = assay: Bactericidal activity against Clostridioides difficile NR-32904 assessed as reduction in microbial growth by broth microdilution method; type: functional
Clostridioides difficile [35] = assay: Bactericidal activity against Clostridioides difficile NR-49278 assessed as reduction in microbial growth by broth microdilution method; type: functional
Clostridioides difficile [36] = assay: Bactericidal activity against Clostridioides difficile NR-49284 assessed as reduction in microbial growth by broth microdilution method; type: functional
Clostridioides difficile [37] = assay: Bactericidal activity against Clostridioides difficile ATCC BAA1870 assessed as reduction in microbial growth by broth microdilution method; type: functional
Clostridioides difficile [38] = assay: Bactericidal activity against Clostridioides difficile ATCC 43255 assessed as reduction in microbial growth by broth microdilution method; type: functional
Bacteroides fragilis [39] = assay: Antibacterial activity against Bacteroides fragilis HM 20 assessed as reduction in microbial growth incubated for 48 hrs by broth microdilution method; type: functional
Bacteroides fragilis [40] = assay: Antibacterial activity against Bacteroides fragilis HM 709 assessed as reduction in microbial growth incubated for 48 hrs by broth microdilution method; type: functional
Bacteroides fragilis [41] = assay: Antibacterial activity against Bacteroides fragilis HM 718 assessed as reduction in microbial growth incubated for 48 hrs by broth microdilution method; type: functional
Bacteroides fragilis [42] = assay: Antibacterial activity against Bacteroides fragilis HM 719 assessed as reduction in microbial growth incubated for 48 hrs by broth microdilution method; type: functional
Bifidobacterium breve [43] = assay: Antibacterial activity against Bifidobacterium breve HM 412 assessed as reduction in microbial growth incubated for 48 hrs by broth microdilution method; type: functional
Bifidobacterium longum = assay: Antibacterial activity against Bifidobacterium longum HM 846 assessed as reduction in microbial growth incubated for 48 hrs by broth microdilution method; type: functional
[44] = tested on: Bifidobacterium angulatum; assay: Antibacterial activity against Bifidobacterium angulatum HM 1189 assessed as reduction in microbial growth incubated for 48 hrs by broth microdilution method; type: functional
Bifidobacterium breve [45] = assay: Antibacterial activity against Bifidobacterium breve HM1120 assessed as reduction in microbial growth incubated for 48 hrs by broth microdilution method; type: functional
Lactobacillus gasseri [46] = assay: Antibacterial activity against Lactobacillus gasseri HM 403 assessed as reduction in microbial growth incubated for 48 hrs by broth microdilution method; type: functional
Lactobacillus gasseri [47] = assay: Antibacterial activity against Lactobacillus gasseri HM 407 assessed as reduction in microbial growth incubated for 48 hrs by broth microdilution method; type: functional
Lactobacillus crispatus [48] = assay: Antibacterial activity against Lactobacillus crispatus HM 103 assessed as reduction in microbial growth incubated for 48 hrs by broth microdilution method; type: functional
Lactobacillus crispatus [49] = assay: Antibacterial activity against Lactobacillus crispatus HM 420 assessed as reduction in microbial growth incubated for 48 hrs by broth microdilution method; type: functional

UDP-N-acetylglucosamine 1-carboxyvinyltransferase (Escherichia coli K-12), sequence (P0A749 whole entry): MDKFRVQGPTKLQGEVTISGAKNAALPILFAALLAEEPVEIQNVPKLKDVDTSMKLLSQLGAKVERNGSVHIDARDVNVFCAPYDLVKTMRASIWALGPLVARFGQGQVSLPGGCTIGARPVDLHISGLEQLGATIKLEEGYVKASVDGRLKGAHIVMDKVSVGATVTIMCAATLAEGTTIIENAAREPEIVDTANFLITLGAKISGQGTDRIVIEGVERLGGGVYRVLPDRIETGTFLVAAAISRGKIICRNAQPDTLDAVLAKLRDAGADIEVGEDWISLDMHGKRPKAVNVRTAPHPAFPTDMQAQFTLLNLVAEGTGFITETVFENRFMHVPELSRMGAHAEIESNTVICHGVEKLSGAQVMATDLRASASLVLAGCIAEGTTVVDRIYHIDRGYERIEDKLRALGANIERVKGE
UDP-N-acetylglucosamine 1-carboxyvinyltransferase (Escherichia coli K-12, UniProt P0A749), sequence (P0A749 whole entry): as above
UDP-N-acetylglucosamine 1-carboxyvinyltransferase (Escherichia coli K-12, UniProt P0A749, C115D), sequence (P0A749 whole entry C115D): as the sequence (P0A749 whole entry) above, with C115D counted along it
UDP-N-acetylglucosamine 1-carboxyvinyltransferase (Escherichia coli K-12), P0A749 [C115D], sequence (P0A749 whole entry C115D): as the sequence (P0A749 whole entry) above, with C115D counted along it

Work on `CC(=O)NC[C@H]1CN(c2ccc(N3CCOCC3)c(F)c2)C(=O)O1` [LINEZOLID] yielded an MIC (Staphylococcus aureus [1]) of 0.5 µg/mL, an MIC (Staphylococcus aureus [2]) of 32 µg/mL and an MIC (Staphylococcus aureus [3]) of 1 µg/mL. It also gave an MIC (Staphylococcus aureus [4]) of 0.5 µg/mL and an MIC (Clostridioides difficile [5]) of 1 µg/mL.

For `O=C(Nc1nc2ccccc2s1)C1CN(c2cccc(Cl)c2)N(c2cccc(Cl)c2)C1=O` (stereo unspecified), the MIC (Escherichia coli) was greater than 40 µM, the inhibition [6] was 65.2% and the IC50 [7] was 18 µM. The Drug uptake [8] was 573 nM, the Drug uptake [9] was 19 µM and the MIC (Staphylococcus aureus [10]) was greater than 40 µM.

For `O=C1NC(=O)c2cc(NC(=O)C3CN(c4cccc(Cl)c4)N(c4cccc(Cl)c4)C3=O)ccc21` (stereo unspecified), the MIC (Escherichia coli) was 17 µM, the inhibition [6] was 81.6% and the IC50 [7] was 11.3 µM. It also gave an inhibition [11] of 74%, an IC50 [12] of 12.7 µM and a Drug uptake [8] of 924 nM. For the same compound, the Drug uptake [9] was 30 µM, the MIC (Staphylococcus aureus [10]) was greater than 40 µM and the Activity (Bacteria) was “Active”.

Compound `N#Cc1cnc(NC(=O)C2CN(c3cccc(Cl)c3)N(c3cccc(Cl)c3)C2=O)s1` (stereo unspecified) has an MIC (Escherichia coli) of 10 µM, an inhibition [6] of 70.8% and an IC50 [7] of 10.9 µM. For the same compound, the Drug uptake [8] was 2560 nM, the Drug uptake [9] was 84 µM and the MIC (Staphylococcus aureus [10]) was 10 µM. The MIC (Staphylococcus aureus [1]) was 8 µg/mL, the MIC (Staphylococcus aureus [2]) was 16 µg/mL and the MIC (Staphylococcus aureus [3]) was 32 µg/mL. It also gave an MIC (Staphylococcus aureus [4]) of 8 µg/mL, an MIC (Streptococcus pneumoniae) of 32 µg/mL and an MIC (Enterococcus faecalis) greater than 64 µg/mL. It also gave an MIC (Clostridioides difficile [5]) of 32 µg/mL.

Work on `CCc1c(Cl)c(O)c(Cl)c(O)c1C(=O)O[C@H]1[C@H](O)[C@H](OC)[C@H](OC/C2=C\C=C\C[C@H](O)/C(C)=C/[C@H](CC)[C@@H](O[C@@H]3OC(C)(C)[C@@H](OC(=O)C(C)C)[C@H](O)[C@@H]3O)/C(C)=C/C(C)=C/C[C@@H]([C@@H](C)O)OC2=O)O[C@@H]1C` [FIDAXOMICIN] yielded an MIC (Clostridioides difficile [13]) of 0.03 µg/mL, an MIC (Clostridioides difficile [14]) of 0.03 µg/mL and an MIC (Clostridioides difficile [15]) of 0.06 µg/mL. It also gave an MIC (Clostridioides difficile [16]) of 0.06 µg/mL, an MIC (Clostridioides difficile [17]) of 0.06 µg/mL and an MIC (Clostridioides difficile [18]) of 0.06 µg/mL. For the same compound, the MIC (Clostridioides difficile [19]) was 0.06 µg/mL, the MIC (Clostridioides difficile [20]) was 0.06 µg/mL and the MIC (Clostridioides difficile [21]) was 0.125 µg/mL. For the same compound, the MIC (Clostridioides difficile [22]) was 0.06 µg/mL, the MIC (Clostridioides difficile [23]) was 0.06 µg/mL and the MIC (Clostridioides difficile [24]) was 0.06 µg/mL. It also gave an MIC (Clostridioides difficile [25]) of 0.06 µg/mL, an MIC (Clostridioides difficile [26]) of 0.125 µg/mL and an MIC (Clostridioides difficile [27]) of 0.125 µg/mL. For the same compound, the MIC (Clostridioides difficile [28]) was 0.03 µg/mL, the MIC (Clostridioides difficile [29]) was 0.125 µg/mL and the MIC (Clostridioides difficile [30]) was 0.06 µg/mL. It also gave an MIC (Clostridioides difficile [31]) of 0.03 µg/mL, an MIC (Clostridioides difficile [32]) of 0.015 µg/mL and an MBC (Clostridioides difficile [33]) of 0.06 µg/mL. The MBC (Clostridioides difficile [34]) was 0.06 µg/mL, the MBC (Clostridioides difficile [35]) was 0.125 µg/mL and the MBC (Clostridioides difficile [36]) was 0.06 µg/mL. The MBC (Clostridioides difficile [37]) was 0.25 µg/mL, the MBC (Clostridioides difficile [38]) was 0.06 µg/mL and the MIC (Bacteroides fragilis [39]) was greater than 64 µg/mL. It also gave an MIC (Bacteroides fragilis [40]) greater than 64 µg/mL, an MIC (Bacteroides fragilis [41]) greater than 64 µg/mL and an MIC (Bacteroides fragilis [42]) greater than 64 µg/mL. The MIC (Bifidobacterium breve [43]) was no more than 0.06 µg/mL, the MIC (Bifidobacterium longum) was no more than 0.06 µg/mL and the MIC [44] was no more than 0.06 µg/mL. The MIC (Bifidobacterium breve [45]) was no more than 0.06 µg/mL, the MIC (Lactobacillus gasseri [46]) was 1 µg/mL and the MIC (Lactobacillus gasseri [47]) was 1 µg/mL. The MIC (Lactobacillus crispatus [48]) was 0.5 µg/mL and the MIC (Lactobacillus crispatus [49]) was 2 µg/mL.
